Test results reported in a melting point compilation (Tetko et al.; mined from patent text by program, amines drawn as free bases though some values may be those of a salt).

Row | melting point | SMILES
1 | 236 to 237 °C | Nc1ccc(S(=O)(=O)c2cc(-c3ccc(Cl)cc3)nc(N3CCCC3)c2)cc1
2 | 106 to 108 °C | CCOC(=O)C(C)(C)CCCCCOc1ccc(-c2csc(NC(=O)NC3CCCCC3)n2)cc1
3 | 90 °C | O=C(NO)c1ccc2c(c1)CCN(C(=O)C1CC1)C2
4 | 43.5 to 45 °C | CCOC(=O)c1c(C(F)(F)F)nc(C(F)(F)Cl)c(C(=O)OC)c1NC(C)C
5 | 181 to 182 °C | CC(C)n1cnc2c(NCc3ccccc3)nc(Cl)nc21
6 | 217 to 218 °C | CN1CCN(c2n[nH]c(=S)n2C2CCc3ccccc3C2)CC1 (stereo not given)
7 | 163 to 164 °C | COC(=O)c1ccc(CC(=O)Nc2cccc(/C=C/c3nc(C4CCC4)cs3)c2)cc1
8 | 55 °C | CCC[C@H]1CC[C@H]([C@H]2CC[C@H](c3ccc(C#N)cc3)CC2)CC1
9 | 117 to 119 °C | COCc1cccc(OCCc2cnc(S)[nH]c2=O)c1
10 | 185 to 187 °C | CC(C=CC=C(C)C=CC1C(C)=CC(=O)CC1(C)C)=CC=CC=C(C)C=CC=C(C)C=CC1C(C)=CC(=O)CC1(C)C (stereo not given)
11 | 289 to 294 °C | Oc1nc(-c2ccc3c(c2)CCO3)nc2ccccc12
12 | 272 to 276 °C | CC1COc2c(N3Cc4ccc(N)cc4C3)c(F)cc3c(=O)c(C(=O)O)cn1c23 (stereo not given)
13 | 89 to 92 °C | O=C(O)C1(CP(=O)(OCc2ccccc2)OCc2ccccc2)CCCC1
14 | 186 to 188 °C | Cc1cn(-c2cc(NC(=O)OC(C)(C)C)cc(C(F)(F)F)c2)cn1
15 | 196 °C | Cc1ccc2[nH]c(=O)n(CCCN3CCN(C(c4ccccc4)c4ccccc4)CC3)c2c1
16 | 100 to 102 °C | O=Cc1ccc(OCc2ccccc2)c([N+](=O)[O-])c1
17 | 97 to 98 °C | CS(=O)(=O)c1ccc(-c2ccccc2Cc2cccc(F)c2)cc1
18 | 80 to 82 °C | O=S(=O)(c1ccccc1)c1c[nH]c2c(CCN3CCN(Cc4ccccc4)CC3)cccc12
19 | 73 °C | CCCCCCc1ncc(C(=O)O)s1
20 | 114 °C | CSc1nc2ccc(C)cc2c(=O)s1
21 | 102 °C | COC(=O)c1sc(C(=O)OC)c(-c2ccoc2)c1O
22 | 105 to 106 °C | CCOC(=O)c1ccccc1Nc1ccccc1O
23 | 141 °C | CCOC(=O)c1ccc(-c2ccc(OCCNC3CC3)c(-c3ccc4c(c3)C(C)(C)CCC4(C)C)c2)cc1

Row | melting point | SMILES
24 | 250 °C | Cn1cc(C(=O)O)c(=O)c2c3cc(N4CCC[C@H]4CNc4ccccc4)c(F)cc3ncc21
25 | 195 °C | CC1(C)c2cc(I)ccc2-c2ccc(I)cc21
26 | 76 °C | CC(=NOCCO)c1ccc(-c2ccccc2)nc1
27 | 187 to 188 °C | ON=Cc1cccc2cccc(N3CCCC3)c12
28 | 210 to 212 °C | COc1ccc(Cl)cc1NC(=O)[C@H]1[C@H](c2ccc(S(N)(=O)=O)cc2)C12CCCC2 (relative stereo)
29 | 101 to 103 °C | CCOC(=O)C1CCCCCCCC(=O)N1 (stereo not given)
30 | 249 to 252 °C | CN(CC#Cc1ccccc1)[C@H]1CC[C@H](c2ccc3[nH]c(=O)oc3c2)CC1
31 | 241 to 243 °C | CC(C)(C)c1cc(Nc2ccc(C(=O)O)cc2)cc(C(C)(C)C)c1O
32 | 102 °C | Cc1cc(-n2ccnc2)c2cccc(OCc3c(Cl)ccc(S(=O)(=O)N4CCC[C@H]4C(=O)NCc4ccccn4)c3Cl)c2n1
33 | 97 to 99 °C | CCOC(=O)[C@]1(O)C=C[C@@H](NC(C)=O)[C@@H]2OC(C)(C)O[C@@H]21
34 | 226 to 230 °C | CC(C)Nc1nc(-n2cc(C(=O)O)c(=O)c3cc(F)c(F)c(Cl)c32)c(F)cc1F
35 | 131 to 132 °C | OC(=S)CC1c2ccccc2Oc2ccccc21
36 | 98 °C | CCCc1nc2c(C(F)(F)F)cccc2c(O)c1C(=O)OCC
37 | 168 to 170 °C | CCN1CCN(C(C(=O)O)c2ccc(Nc3nc(-c4cccc(NC(=O)c5cc6c(s5)CCCCC6)c4C)cn(C)c3=O)cc2)CC1 (stereo not given)
38 | 209 °C | CCCCC1=C(C(=O)OCC)C(c2ccccc2Cl)c2c[nH]nc2N1 (stereo not given)
39 | 173 to 176 °C | CCC1(C)CC(NC(=O)c2ccccc2)C(C)C(C)(CC)N1Cc1ccccc1 (stereo not given)
40 | 259 °C | COc1ccc(C(=O)C2=C(O)C(=O)N(c3ccc(C)nn3)C2c2ccc(OC)cc2)cc1 (stereo not given)
41 | 190 to 192 °C | CN=C(N)N(C)Cc1ccc(C2=NNC(=O)CC2C)cc1 (stereo not given)
42 | 249 to 250 °C | Cc1ccc(-c2c(Cl)nc(-c3ccccc3)nc2NS(=O)(=O)c2ccc(C(C)(C)C)cc2)cc1
43 | 50 to 52 °C | CCCc1c(OCC(=N)OCC)ccc(C(C)=O)c1O
44 | 154 to 155 °C | O=C(O)Cc1cccc(Cc2nc3c(F)c(F)ccc3s2)c1
45 | 183 to 184 °C | C[C@]12CCC(=O)C=C1CC[C@@H]1[C@@H]2CC[C@]2(C(F)F)C(=O)CC[C@@H]12
46 | 180 to 182 °C | Cc1cc(C(O)(C(F)(F)F)C(F)(F)F)cc(C)c1OCC(N)=O

Row | melting point | SMILES
47 | 118 to 120 °C | Cc1ccc(Nc2cccc3c2OC(COS(=O)(=O)c2ccc(C)cc2)C3)cc1 (stereo not given)
48 | 163 to 164 °C | Oc1ccccc1Nc1cc[nH]n1
49 | 72 to 74 °C | COc1cc(O)cc(CN2C(=O)N(c3cnn(Cc4c(C)noc4C)c3)C(=O)C2(C)C)c1
50 | 205 to 206 °C | Nc1ccc(-c2nc3n(c2-c2ccc(N)cc2)CCS3)cc1
51 | 312 to 322 °C | COc1cc(-c2sc3nc(N)[nH]c(=O)c3c2C)ccc1Cl
52 | 201 to 205 °C | Cc1ccc(S(=O)(=O)NC(=O)C(C)c2ccc3cc(OCc4ccc5ccccc5n4)ccc3c2)cc1 (stereo not given)
53 | 153 to 154 °C | O=C(O)CC(CC(=O)O)Sc1nc2ccccc2s1
54 | 101 to 106 °C | CN(SSN(C)S(=O)(=O)c1ccccc1)S(=O)(=O)c1ccccc1
55 | 145 to 147 °C | COC(=O)C1=C(N)NC(C)=C([N+](=O)[O-])C1c1ccccc1S(=O)(=O)CCCCN1CCN(c2ccccc2OC)CC1 (stereo not given)
56 | 91 to 92 °C | CCOC(=O)c1c(O)c2cc(F)ccc2c(=O)n1CC(C)C
57 | 126 to 128 °C | CN(C)c1ccc2ncnc(Cl)c2c1
58 | 148 °C | c1csc(C2NCCNCc3ccccc32)c1 (stereo not given)
59 | 73 to 74 °C | COc1cc2c(cc1OCc1ccccc1)CCN(Cc1ccccn1)C2
60 | 144 to 146 °C | O=C(c1ccccc1)n1c(=O)c(C(F)(F)F)cn(C2CC(O)C(CO)O2)c1=O (stereo not given)
61 | 133 to 135 °C | CCCN(CCC)Cc1cnc(-c2ncn3c2[C@@H]2CCN2C(=O)c2sccc2-3)o1
62 | 103 to 104 °C | COc1cc(NS(=O)(=O)c2ccc(C)cc2)cc(OC)c1
63 | 112 °C | O=[N+]([O-])c1ccc(Oc2cc(Cl)c(Cl)cc2Cl)c(Cl)c1Oc1ccccc1
64 | 72 to 78 °C | Cc1cc(Cc2cnc(NCCSCc3cc(CN(C)C)ccn3)[nH]c2=O)cnc1C
65 | 222 °C | CCOC(=O)c1cn(CCCl)c2cc(Cl)c(F)cc2c1=O
66 | 212 to 213 °C | CN(CC1CCc2c(cccc2OCC(=O)O)C1)c1cnc(-c2ccccc2)c(-c2ccccc2)n1 (stereo not given)
67 | 147 to 148 °C | COc1cc(OC)nc(Sc2cnn(C)c2NS(=O)(=O)CC#N)n1

Row | SMILES | melting point
68 | CC1CC(O)=CC2=CCC3C4CCC(O)C4(C)CCC3C21C (stereo not given) | 111 to 112 °C
69 | CC1=CC2c3cccc4[nH]c(SC(C)C)c(c34)CC2N(C)C1 (stereo not given) | 145 to 147 °C
70 | COC1CCC2C3CCC4CC(=O)C(Cl)CC4(C)C3CCC12C (stereo not given) | 202 to 210 °C
